Patent US20160178628A1, “Electrical Cell-substrate Impedance Sensor (ECIS)” (priority 2015, published 2016)

Columns and labels:
[1] = test system: tubulin assemblies of MCF-7 cells; assay: Confocal microscopy of tubulin assemblies of MCF-7 cells; format: cell-based, human
Protocol: In addition, an un-treated control sample was prepared as reference for comparison. Then, samples were washed with PBS and permeabilized with microtubule stabilizing buffer [80 mM PIPES-KOH (pH 6.8), 5 mM EGTA, and 1 mM MgCl2 containing 0.5% Triton X-100] for 5 min at room temperature before being fixed with chilled absolute methanol for 10 min at −20° C. Thereafter, the fixed cells were washed and incubated with monoclonal mouse anti-α-tubulin antibody (Sigma Co.) for 1 hour at room temperature followed by incubation with FITC-conjugated antimouse IgG antibody (Santa Cruz Biotechnology). The stained cells were mounted with Vectashield (Vector Laboratories, Burlingame, Calif.) and observed by confocal microscopy.

MCF-7 cells = assay: SiNW-ECIS impedance and capacitance measurement of drug-treated MCF-7 cells; format: cell-based, human; conditions: for change of norm in impedance of treated cells, T1 vs. T2: 2 hours vs. 6 hours after drug incubation; for norm of capacitive changes, control sample more than treated sample: 6 hours after drug incubation (T2)
Protocol: In this example, the diagnostic response of cells membrane to extremely low dose of antitubulin drugs is investigated. Initially, MCF-7 cell lines, isolated from grade I human breast tumors, were obtained from the National Cell Bank of Iran (Pasteur Institute). Then, cells were maintained in a CO2 incubator (37° C., 5% CO2) in RPMI-1640 medium supplemented with 5% fetal bovine serum, and 1% penicillin/streptomycin. The fresh medium was replaced every other day. Then, the cultured cells were dropped on the surface of the SiNW-ECIS, designed and fabricated pursuant to teachings of the present application. Prior to each experiment, cells were trypsinized to be detached from the substrate and resuspended on the SiNW surface. To minimize the effect of trypsinization, the procedure may last for less than 4 minutes at room temperature of about 20° C. The samples were held in an incubator for about 4 hours to achieve cells attachment on the SiNWs. Thereafter, the ABZ drug with low concentrations of about 2.1 nano-moles per liter and the PTX drug with low concentrations of about 0.1 nano-moles per liter were added to individual samples. Finally, the signal recording and biological assays were investigated about 2 hours and 6 hours after the drug treatment (6 hours and 10 hours after the beginning of culturing process).
Referring to FIGS. 12A-12G, comparative normalized diagrams of impedance (designated by ΔZ % and represented by solid black lines) and capacitance changes (designated by ΔC % and represented by dashed grey lines) are illustrated for MCF-7 cells seeded on SiNW electrodes after treating by 2.1 nano-moles per liter of ABZ and 0.1 nano-moles per liter of PTX. The time interval between the drug incubation and the signal extraction are 2 hours (designated by T1) and 6 hours (designated by T2). In addition, the same diagrams are plotted for control sample prepared with no drug treatment stage.
According to the method described in the present example, the samples were maintained in an incubator so that the signal extraction was repeated 10 hours after cells dropping (6 hours after drug incubation for treated samples) to monitor the time evolution of drug induced MT polymerization/depolymerization on bioelectrical response of the membrane.

[2] = MCF-7, PTX 0.1 nano-moles per liter, 2 hours after treatment (T1)
[3] = MCF-7, PTX 0.1 nano-moles per liter
[4] = MCF-7, ABZ 2.1 nano-moles per liter, 2 hours after drug incubation (T1)
[5] = MCF-7, ABZ 2.1 nano-moles per liter

Structure (SMILES): CC(=O)O[C@H]1C(=O)[C@@]2(C)[C@H]([C@H](OC(=O)c3ccccc3)[C@]3(O)C[C@H](OC(=O)[C@H](O)[C@@H](NC(=O)c4ccccc4)c4ccccc4)C(C)=C1C3(C)C)[C@]1(OC(C)=O)CO[C@@H]1C[C@@H]2O [PTX, Paclitaxel]
- spindle / microtubule morphology (confocal image) ([1]; MCF-7, PTX 0.1 nano-moles per liter, 2 hours after treatment): aggregated spindles
- spindle / microtubule morphology (confocal image) ([1]; MCF-7, PTX 0.1 nano-moles per liter, 6 hours after treatment): increased aggregation in MT spindles
- variation in mean capacitance of the sensor versus control (MCF-7 cells; [2]): about 60%
- variation in mean impedance of the sensor versus control (MCF-7 cells; [2]): about 50%
- change of norm in impedance of treated cells, T1 vs. T2 (MCF-7 cells; [3]): 15%
- norm of capacitive changes, control sample more than treated sample (MCF-7 cells; [3]): ~75%

Structure (SMILES): CCCSc1ccc2nc(NC(=O)OC)[nH]c2c1 [ABZ, Albendazole]
- spindle / microtubule morphology (confocal image) ([1]; MCF-7, ABZ 2.1 nano-moles per liter, 2 hours after treatment): abnormally reduced numbers of spindles or monopolar (monoaster) spindles
- spindle / microtubule morphology (confocal image) ([1]; MCF-7, ABZ 2.1 nano-moles per liter, 6 hours after treatment): monoastered MTs are observable
- changes in membrane impedance versus control (MCF-7 cells; [4]): 25%
- variations in capacitance of the sensor versus control (MCF-7 cells; [4]): 70%
- change of norm in impedance of treated cells, T1 vs. T2 (MCF-7 cells; [5]): about 60%
- norm of capacitive changes, control sample more than treated sample (MCF-7 cells; [5]): about 90%
